{"source": "patent US20210255187A1", "about": "“METHOD FOR PREDICTING THE EFFECTIVENESS OF TREATMENTS FOR CANCER PATIENTS” (University College Dublin, National University of Ireland, …, priority 2018, published 2021)", "origin": "cited, not measured here", "tested_on": "breast cancer cells"}
{"molecule": "COc1cccc2c1C(=O)c1c(O)c3c(c(O)c1C2=O)C[C@@](O)(C(=O)CO)C[C@@H]3O[C@H]1C[C@H](N)[C@H](O)[C@H](C)O1", "note": "[doxorubicin]", "values": [{"measurement": "AKT phosphorylation in response to doxorubicin", "result": "not changing"}]}
